Data reported in ChEMBL document CHEMBL5154926, “Discovery of a Novel Series of Imipridone Compounds as Homo sapiens Caseinolytic Protease P Agonists with Potent Antitumor Activities In Vitro and In Vivo” (J Med Chem, 2022).
pIC50: −log10 of the molar value. ≈ marks a conversion by molar mass, not a printed value.

What was measured:
A549 = test: Antiproliferative activity against human A549 cells incubated for 48 hrs by CCK-8 assay; type: functional, cell-based; settings: A549, 48 h
[1] = Antiproliferative activity against rat H9c2 cells incubated for 48 hrs by CCK-8 assay; type: toxicity, cell-based
HCT-116 [2] = test: cells; settings: Homo sapiens, HCT-116, 48 h
Description: Antiproliferative activity against human HCT-116 cells incubated for 48 hrs by CCK-8 assay

HCT-116 [3] = test: Potency index, ratio of ONC201 IC50 to test compound IC50 for antiproliferative activity against human HCT-116 cells by CCK-8 assay; type: functional
[4] = Antiproliferative activity against human HEK293 cells incubated for 48 hrs by CCK-8 assay; type: toxicity, cell-based
HT-29 = test: cells; settings: Homo sapiens, HT-29, 48 h
Description: Antiproliferative activity against human HT-29 cells incubated for 48 hrs by CCK-8 assay

Raji = test: Antiproliferative activity against human Raji cells incubated for 48 hrs by CCK-8 assay; type: functional, cell-based
HCT-15 = test: cells; settings: Homo sapiens, HCT-15, 48 h
Description: Antiproliferative activity against human HCT-15 cells incubated for 48 hrs by CCK-8 assay

SW-620 = test: cells; settings: Homo sapiens, SW-620, 48 h
Description: Antiproliferative activity against human SW-620 cells incubated for 48 hrs by CCK-8 assay

SW480 = test: cells; settings: Homo sapiens, SW480, 48 h
Description: Antiproliferative activity against human SW480 cells incubated for 48 hrs by CCK-8 assay

DLD-1 = test: cells; settings: Homo sapiens, DLD-1, 48 h
Description: Antiproliferative activity against human DLD-1 cells incubated for 48 hrs by CCK-8 assay

U-251 = test: Antiproliferative activity against human U-251 cells incubated for 48 hrs by CCK-8 assay; type: functional, cell-based; settings: U-251, 48 h
MDA-MB-231 = test: Antiproliferative activity against human MDA-MB-231 cells incubated for 48 hrs by CCK-8 assay; type: functional, cell-based; settings: MDA-MB-231, 48 h
HCT-116 [5] = test: Induction of apoptosis in human HCT-116 cells assessed as viable cells at 50 nM incubated for 48 hrs by Annexin V/FITC staining based flow cytometric method (reference value: 97.66%); type: functional; settings: read-out: Activity
[6] = 1-octanol/water partition coefficient, log P of the compound agitated for 4 hrs measured by shake flask assay based HPLC analysis; type: physicochemical
HCT-116 [7] = test: Induction of ROS generation in human HCT-116 cells at 50 nM measured after 24 hrs by DHE staining based fluorescence assay (reference value: […] %); type: functional
[8] = target: Voltage-gated inwardly rectifying potassium channel KCNH2 (Homo sapiens, UniProt Q12809); test: Inhibition of hERG expressed in HEK293 cells by automated patch clamp assay; type: toxicity, cell-based
Chain of Voltage-gated inwardly rectifying potassium channel KCNH2 (Q12809 whole entry): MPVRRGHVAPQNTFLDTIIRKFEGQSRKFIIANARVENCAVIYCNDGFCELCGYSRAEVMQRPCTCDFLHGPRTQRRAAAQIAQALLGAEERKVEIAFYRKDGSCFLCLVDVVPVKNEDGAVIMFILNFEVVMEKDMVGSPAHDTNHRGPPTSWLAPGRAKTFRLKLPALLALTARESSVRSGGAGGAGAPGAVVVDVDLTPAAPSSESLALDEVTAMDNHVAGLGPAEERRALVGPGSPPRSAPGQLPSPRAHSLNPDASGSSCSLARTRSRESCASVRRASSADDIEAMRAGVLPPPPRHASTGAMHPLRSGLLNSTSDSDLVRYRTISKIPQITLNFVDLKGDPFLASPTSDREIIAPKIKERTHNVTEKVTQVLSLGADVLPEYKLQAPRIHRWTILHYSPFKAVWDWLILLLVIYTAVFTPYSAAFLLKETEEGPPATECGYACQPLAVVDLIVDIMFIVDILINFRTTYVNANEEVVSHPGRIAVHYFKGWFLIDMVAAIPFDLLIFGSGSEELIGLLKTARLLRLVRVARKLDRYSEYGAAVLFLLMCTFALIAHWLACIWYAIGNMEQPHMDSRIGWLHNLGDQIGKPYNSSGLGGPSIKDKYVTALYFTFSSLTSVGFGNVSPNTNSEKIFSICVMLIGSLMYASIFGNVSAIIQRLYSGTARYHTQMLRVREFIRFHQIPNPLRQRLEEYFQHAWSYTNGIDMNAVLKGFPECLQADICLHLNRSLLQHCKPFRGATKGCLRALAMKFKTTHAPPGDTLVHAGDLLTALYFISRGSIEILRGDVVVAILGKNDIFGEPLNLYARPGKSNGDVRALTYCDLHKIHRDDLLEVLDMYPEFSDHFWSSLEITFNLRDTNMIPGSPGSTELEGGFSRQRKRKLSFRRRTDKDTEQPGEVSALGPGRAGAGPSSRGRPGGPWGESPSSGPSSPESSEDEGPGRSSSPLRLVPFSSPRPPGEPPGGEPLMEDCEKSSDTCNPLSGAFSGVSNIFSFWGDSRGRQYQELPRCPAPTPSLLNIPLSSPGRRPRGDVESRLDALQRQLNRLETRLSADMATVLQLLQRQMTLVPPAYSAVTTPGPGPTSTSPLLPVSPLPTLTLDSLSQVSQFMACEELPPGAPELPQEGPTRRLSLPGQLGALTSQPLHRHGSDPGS

[9] = Aqueous solubility of the compound agitated for 24 hrs by HPLC analysis; type: physicochemical; settings: buffer
HCT-116 [10] = test: Induction of apoptosis in human HCT-116 cells assessed as necrotic cells at 50 nM incubated for 48 hrs by Annexin V/FITC staining based flow cytometric method (reference value: 0.05%); type: functional
HCT-116 [11] = test: Induction of apoptosis in human HCT-116 cells assessed as late apoptotic cells at 50 nM incubated for 48 hrs by Annexin V/FITC staining based flow cytometric method (reference value: 1.57%); type: functional
HCT-116 [12] = test: Induction of ROS generation in human HCT-116 cells at 25 nM measured after 24 hrs by DHE staining based fluorescence assay (reference value: […] %); type: functional
HCT-116 [13] = test: Induction of apoptosis in human HCT-116 cells assessed as viable cells at 25 nM incubated for 48 hrs by Annexin V/FITC staining based flow cytometric method (reference value: 97.66%); type: functional; settings: read-out: Activity
HCT-116 [14] = test: Induction of ROS generation in human HCT-116 cells at 12.5 nM measured after 24 hrs by DHE staining based fluorescence assay (reference value: […] %); type: functional
HCT-116 [15] = test: Induction of apoptosis in human HCT-116 cells assessed as late apoptotic cells at 25 nM incubated for 48 hrs by Annexin V/FITC staining based flow cytometric method (reference value: 1.57%); type: functional
[16] = Stability in human liver microsomes assessed as intrinsic clearance at 1.5 uM measured upto 90 mins in presence of NADPH by LC/MS analysis; type: ADME, Microsome; settings: read-out: CLH
HCT-116 [17] = test: Induction of apoptosis in human HCT-116 cells assessed as necrotic cells at 25 nM incubated for 48 hrs by Annexin V/FITC staining based flow cytometric method (reference value: 0.05%); type: functional
HCT-116 [18] = test: Induction of apoptosis in human HCT-116 cells assessed as early apoptotic cells at 50 nM incubated for 48 hrs by Annexin V/FITC staining based flow cytometric method (reference value: […]); type: functional
HCT-116 [19] = test: Induction of apoptosis in human HCT-116 cells assessed as necrotic cells at 12.5 nM incubated for 48 hrs by Annexin V/FITC staining based flow cytometric method (reference value: 0.05%); type: functional
HCT-116 [20] = test: Induction of cell cycle arrest in human HCT-116 cells assessed as accumulation of cells at G0/G1 phase at 50 nM incubated for 48 hrs propidium iodide based flow cytometric analysis (reference value: 26 %); type: functional
HCT-116 [21] = test: Induction of apoptosis in human HCT-116 cells assessed as viable cells at 12.5 nM incubated for 48 hrs by Annexin V/FITC staining based flow cytometric method (reference value: 97.66%); type: functional; settings: read-out: Activity
HCT-116 [22] = test: Induction of apoptosis in human HCT-116 cells assessed as early apoptotic cells at 25 nM incubated for 48 hrs by Annexin V/FITC staining based flow cytometric method (reference value: […]); type: functional
[23] = Stability in human liver microsomes assessed as half life at 1.5 uM measured upto 90 mins in presence of NADPH by LC/MS analysis; type: ADME, Microsome; settings: human liver microsomes
HCT-116 [24] = test: Induction of apoptosis in human HCT-116 cells assessed as early apoptotic cells at 12.5 nM incubated for 48 hrs by Annexin V/FITC staining based flow cytometric method (reference value: […]); type: functional
[25] = Stability in rat liver microsomes assessed as half life at 1.5 uM measured upto 90 mins in presence of NADPH by LC/MS analysis; type: ADME, Microsome; settings: 1.5 h
HCT-116 [26] = test: Induction of apoptosis in human HCT-116 cells assessed as late apoptotic cells at 12.5 nM incubated for 48 hrs by Annexin V/FITC staining based flow cytometric method (reference value: 1.57%); type: functional
HCT-116 [27] = test: Induction of cell cycle arrest in human HCT-116 cells assessed as accumulation of cells at G0/G1 phase at 12.5 nM incubated for 48 hrs propidium iodide based flow cytometric analysis (reference value: 26 %); type: functional

Cc1ccccc1CN1CCn2c1nc(=O)c1c2CCN(Cc2ccccc2)C1 gave a pIC50 (A549) of 5.67, an IC50 at 48 h [1] of over 50000 nM and a pIC50 (HCT-116 [2]) of 6.40. For the same compound, the “Ratio IC50” value (HCT-116 [3]) was 10, the IC50 at 48 h [4] was over 50000 nM and the pIC50 (HT-29) was 5.28. The pIC50 (Raji) was 5.97, the pIC50 (HCT-15) was 5.89 and the pIC50 (SW-620) was 6.19. It also gave a pIC50 (SW480) of 5.96, a pIC50 (DLD-1) of 6.28 and a pIC50 (U-251) of 5.69. For the same compound, the pIC50 (MDA-MB-231) was 4.98.
Compound O=c1nc2n(c3c1CN(Cc1ccccc1)CC3)CCN2Cc1ccc(F)c(Br)c1 has a viability at 0.05 µM (HCT-116 [5]) of 91.6%, a logP at 4 h [6] of 3.21 and an Activity (HCT-116 [7]) of 99.4%. The pIC50 [8] was 5.31, the solubility at 24 h [9] was 100 µM (≈ 47.1 µg/mL) and the Activity (HCT-116 [10]) was 0.16%. It also gave an Activity (HCT-116 [11]) of 5.12%, an Activity (HCT-116 [12]) of 97.9% and a viability at […] (HCT-116 [13]) of 94.7%. For the same compound, the Activity (HCT-116 [14]) was 99.46%, the Activity (HCT-116 [15]) was 3% and the CLint scaled at 1.5 µM [16] was 134 mL/min/kg. The Activity (HCT-116 [17]) was 0.12%, the Activity (HCT-116 [18]) was 3.16% and the Activity (HCT-116 [19]) was 0.07%. It also gave an Activity (HCT-116 [20]) of 55%, a viability at 0.0125 µM (HCT-116 [21]) of 95.8% and an Activity (HCT-116 [22]) of 2.14%. It also gave a half-life at 1.5 µM [23] of 13 min, an Activity (HCT-116 [24]) of 1.27% and a t1/2 [25] of 16.1 min. It also gave an Activity (HCT-116 [26]) of 2.82% and an Activity (HCT-116 [27]) of 40%.
